# Reference: patent US4623648A, “1-azaxanthone for use as therapeutic agent as an antipyretic, analgesic, anti-inflammatory and bronchodilator” (priority 1981, dated 1986)
# Assays:
# [1] = system: guinea pig; test: Inhibition of the bronchoconstrictor response to histamine in guinea pig; assay type: in vivo; conditions: 8 mg/kg i.v., 5 μg histamine
# Experimental: (§1) Sprague-Dawley rats, Swiss mice, California rabbits and mongrel guinea pigs and cats were used. 1-azaxanthone was administered as a suspension in 0.5 % w/v of carboxymethyl-cellulose in distilled water for oral and i.p. administration. When administered i.v. or to the nutrient liquid of the isolated tissues, a solution of the compound in isopropylidenglycerol (15 mg/ml) was used.
# Inhibition of the bronchoconstrictor response to histamine in guinea pig (according to H. Konzett and R. Rossler, Arch. Exptl. Path. Pharmak. 1940, 195, 71). 1-azaxanthone (8 mg/kg i.v.) inhibited the response induced by 5 μg of histamine by 100% at 5 min, 67% at 10 min, 50% at 20 min, and 15% at 30 min after administration.
# [2] = system: mice; test: Phenyl-p-benzoquinone induced writhing in mice; assay type: in vivo; conditions: Mus musculus; oral; 95% confidence limits 6.1-11.8
# Experimental: as §1
# Phenyl-p-benzoquinone induced writhing in mice (according to E. A. Siegmund et al., J. Pharmacol. Exptl. Therap. 1957, 119, 453). […] I
# [3] = system: abscess; test: Carrageenan-induced abscess; assay type: in vivo; conditions: 50×2 mg/kg per os
# Experimental: as §1
# Carrageenan-induced abscess (according to K. F. Benitz and L. M. Hall, Arch. Int. Pharmacodyn. 1963, 144, 185).
# [4] = system: rats; test: Chronic administration to rats (92 days); assay type: in vivo
# [5] = system: rabbits; test: Lipopolysaccharide hyperthermia in rabbits with established fever; assay type: in vivo; conditions: 200 mg/kg i.p.
# Experimental: as §1
# Hyperthermia induced in rabbits by i.v. injection of lipopolysaccharide of Escherichia coli (according to C. A. Winter and G. W. Nuss, Toxic. Appl. Pharmacol. 1963, 5, 247). […] The compound was also effective when administered to rabbits with established fever; for example, when 200 mg/kg of 1-azaxanthone were administered i.p. to a group of 5 rabbits from a total of 10 with mean hyperpyrexia of +1.15° C. 2 hours after the lipopolysaccharide injection, the hyperpyrexia of the treated group was +0.7° C. at 2 hours and +0.1° C. at 3 hours, while the hyperpyrexia of the untreated animals was 1.5° C. at 2 hours and 1.15° C. at 3 hours (all periods after administration of the test compound).
# [6] = system: rats; test: 14 day oral tolerance of gastric and rectal mucosae and liver elimination of sulphobromophthalein; assay type: in vivo; conditions: 200 mg/kg/day oral, 14 consecutive days
# [7] = Solubility by the equilibrium (saturation) technique; assay type: physicochemical; conditions: 20-25° C.
# Experimental: The solubilities of 1-azaxanthone in several solvents were determined at 20-25° C. by the equilibrium (saturation) technique, measuring the concentration spectrophotometrically at 335 nm or by high pressure liquid chromatography/spectrophotometry. The following values (in mg/ml) were obtained: water: 0.08; 0.1 N HCl: 0.07; 0.1 N NaOH: 0.07; buffer pH 7.4: 0.06; methanol: 7.6; ethanol: 6.2; propyleneglycol: 5.0; ethyl acetate: 20; chloroform: >50; dioxane: 65.
# [8] = system: rats; test: Subacute toxicity study in rats (42 days); assay type: in vivo
# [9] = system: rats; test: Diuretic activity in rats; assay type: in vivo; conditions: 10 mg/kg oral
# Experimental: as §1
# 1-azaxanthone was administered orally to rats (groups of 10) in a volume of 5 ml/rat immediately before allocating the animals to metabolism cages. The total volume of urine was measured 6 and 24 hours later. 10 mg/kg of 1-azaxanthone increased the total volume with respect to the control group by 94% in the first 6 hours and 44% in the 24 hours period.
# [10] = system: rats; test: Preliminary teratogenesis studies in rats; assay type: in vivo
# [11] = system: rats; test: 6 months toxicity evaluation in rats; assay type: in vivo; conditions: 25, 50 and 100 mg/kg/day p.o.
# [12] = system: mice; test: Charcoal intestinal transit in mice; assay type: in vivo
# Experimental: as §1
# Charcoal intestinal transit in mice. 1-azaxanthone was administered i.p. 1 hour before the oral administration of 0.1 ml/mouse of an active charcoal suspension (10 g of charcoal and 1 g of gum arabicum +70 ml of distilled water). 1.5 hours after the charcoal administration the animals were sacrificed, and the length travelled by the charcoal from the pylorus was measured.
smiles,measurement,setting,value
O=c1c2ccccc2oc2ncccc12 [1-azaxanthone],inhibition of response induced by histamine,[1]; 5 min after administration,100%
same,inhibition of response induced by histamine,[1]; 10 min after administration,67%
same,inhibition of response induced by histamine,[1]; 20 min after administration,50%
same,inhibition of response induced by histamine,[1]; 30 min after administration,15%
same,ED50,[2],8.9 mg/kg
same,inhibition of dry weight of the abscess,[3],48.4%
same,inhibition of wet weight of the abscess,[3],34.6%
same,effect on body weight increase and hematological/serum parameters,[4]; 25 mg/kg/day oral,without statistically significant effect
same,alteration of parameters compared to control group,[4]; 100 mg/kg/day oral,some of these parameters were altered
same,survival,[4]; oral,all animals survived
same,weights of the main organs,[4]; oral,within normal limits
same,hyperpyrexia of the treated group,[5]; 2 hours after administration (untreated 1.5° C.),+0.7 °C
same,hyperpyrexia of the treated group,[5]; 3 hours after administration (untreated 1.15° C.),+0.1 °C
same,liver elimination of sulphobromophthalein,[6],eliminated sulphobromophthalein well
same,tolerance of gastric and rectal mucosae,[6],tolerated the compound well
same,solubility,[7]; 0.1 N HCl,0.07 mg/mL
same,solubility,[7]; 0.1 N NaOH,0.07 mg/mL
same,solubility,"[7]; aqueous buffer, buffer pH 7.4",0.06 mg/mL
same,solubility,"[7]; organic solvent or mixture, chloroform",> 50 mg/mL
same,solubility,"[7]; organic solvent or mixture, dioxane",65 mg/mL
same,solubility,"[7]; organic solvent or mixture, ethanol",6.2 mg/mL
same,solubility,"[7]; organic solvent or mixture, ethyl acetate",20 mg/mL
same,solubility,"[7]; organic solvent or mixture, methanol",7.6 mg/mL
same,solubility,"[7]; organic solvent or mixture, propyleneglycol",5 mg/mL
same,solubility,[7]; water,0.08 mg/mL
same,reversibility of hepatomegaly,"[8]; another study, on discontinuing the administration",fully reversible
same,hepatomegaly,"[8]; oral, 42 days",developed a hepatomegaly
same,histology of hepatomegaly,"[8]; oral, 42 days",increased volume of hepatic nucleoles
same,drug-related toxic effect,"[8]; oral, 42 days, up to 200 mg/kg/day",did not show any drug-related toxic effect
same,sodium excretion,[9],increased
same,increase of total urine volume with respect to control,[9]; 24 hours period,44%
same,increase of total urine volume with respect to control,[9]; first 6 hours,94%
same,teratogenic potential,[10],did not show any clear specific teratogenic potential
same,toxicity results compared with the 92 days study,[11],almost the same as in the 92 days study
same,inhibition of charcoal intestinal transit,[12]; 4 mg/kg i.p.,15%
same,inhibition of charcoal intestinal transit,[12]; 6.2 mg/kg i.p.,22%
same,inhibition of charcoal intestinal transit,[12]; 12.5 mg/kg i.p.,37%
same,inhibition of charcoal intestinal transit,[12]; doses lower than 4 mg/kg i.p.,inactive
